Experimental data from the supplement of paper PMC10307832.

Key:
Assay in all cases: relative viability (nuclei count vs DMSO), 5 days (fraction); higher = more cells survive
Adavosertib + Phenformin = compound: C=CCn1c(=O)c2cnc(Nc3ccc(N4CCN(C)CC4)cc3)nc2n1-c1cccc(C(C)(C)O)n1 [Adavosertib] + N=C(N)NC(=N)NCCc1ccccc1 [Phenformin] (partner 250 µM)
Procedure, shortened: (§1)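 Each reported value is a median over duplicate plates. It expresses relative viability: treated-well nuclei count divided by vehicle-well nuclei count. Lung cancer cell lines in 1536-well plates were dosed by pin tool a day after seeding, alone with one drug or with a fixed anchor-drug dose plus five library-drug doses (not always all listed) in √10 steps, and nuclei were counted after 5 days.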

Adavosertib + Vorinostat = compound: C=CCn1c(=O)c2cnc(Nc3ccc(N4CCN(C)CC4)cc3)nc2n1-c1cccc(C(C)(C)O)n1 [Adavosertib] + O=C(CCCCCCC(=O)Nc1ccccc1)NO [Vorinostat] (partner 1 µM)
Procedure, shortened: as §1

Nelarabine + Lapatinib = compound: COc1nc(N)nc2c1ncn2[C@@H]1O[C@H](CO)[C@@H](O)[C@@H]1O [Nelarabine] + CS(=O)(=O)CCNCc1ccc(-c2ccc3ncnc(Nc4ccc(OCc5cccc(F)c5)c(Cl)c4)c3c2)o1 [Lapatinib] (partner 2 µM)
Procedure, shortened: as §1

Nelarabine + Vorinostat = compound: COc1nc(N)nc2c1ncn2[C@@H]1O[C@H](CO)[C@@H](O)[C@@H]1O [Nelarabine] + O=C(CCCCCCC(=O)Nc1ccccc1)NO [Vorinostat] (partner 1 µM)
Procedure, shortened: as §1

Cell Line	relative viability (Adavosertib + Phenformin; first compound 0.01 µM)	relative viability (Adavosertib + Phenformin; first compound 0.03162 µM)	relative viability (Adavosertib + Phenformin; first compound 0.1 µM)	relative viability (Adavosertib + Phenformin; first compound 0.3162 µM)	relative viability (Adavosertib + Vorinostat; first compound 0.01 µM)	relative viability (Adavosertib + Vorinostat; first compound 0.03162 µM)	relative viability (Adavosertib + Vorinostat; first compound 0.1 µM)	relative viability (Adavosertib + Vorinostat; first compound 0.3162 µM)	relative viability (Nelarabine + Lapatinib; first compound 0.01 µM)	relative viability (Nelarabine + Lapatinib; first compound 0.03162 µM)	relative viability (Nelarabine + Lapatinib; first compound 0.1 µM)	relative viability (Nelarabine + Lapatinib; first compound 0.3162 µM)	relative viability (Nelarabine + Lapatinib; first compound 1 µM)	relative viability (Nelarabine + Vorinostat; first compound 0.01 µM)	relative viability (Nelarabine + Vorinostat; first compound 0.1 µM)	relative viability (Nelarabine + Vorinostat; first compound 0.3162 µM)	relative viability (Nelarabine + Vorinostat; first compound 1 µM)	relative viability (Nelarabine + Vorinostat; first compound 0.03162 µM)
NCI-H1793	0.356	0.385	0.414	0.273	0.695	0.739	0.581	0.745	0.827	0.945	0.83	0.933	0.727	1.05	0.885	0.987	0.784	
NCI-H460	0.523	0.566	0.493	0.317	0.712	0.702	0.906	0.355		1.76	1.84	1.62	1.27	1.42	0.889	1.13	0.923	1.5
NCI-H661	0.28	0.264	0.276	0.252	0.847	0.809	0.764	0.351	0.497	0.644	0.556	0.502	0.509	0.862	0.702	0.761	0.727	0.951
HARA	0.513	0.476	0.548	0.361	0.485	0.629	0.592	0.587	0.971	0.666	0.719	0.808	0.767	0.658	0.532	0.581	0.544	0.543
NCI-H1437	0.388	0.308	0.275	0.285	0.985	0.784	0.936	0.816	1.06	0.83	0.815	0.839	0.79	0.992	0.831	0.878	0.808	0.946
201T	0.453	0.441	0.467	0.453	0.953	1.01	0.95	1.05	1.05	1.02	0.999	1.09	1.1	1.2	0.999	1.03	0.979	1.04
LC-2-ad	0.565	0.635	0.621	0.597	0.708	0.661	0.736	0.704	1.28	1.03	0.991	1.06	1.08	0.814	0.67	0.721	0.676	0.738
